Measurements from patent publication US4918067A, “Heterocyclic substituted penicillin antibiotics” (Beecham Group p.l.c., priority 1986, dated 1990).

Assays:
Format in all cases: cell-based
S. agalacticae 2798 = test: in vitro MIC against S. agalacticae 2798
Procedure: (§1) The compound of the Example was tested in vitro against a number of microorganisms.

E. Coli ESS = test: in vitro MIC against E. Coli ESS; conditions: Escherichia coli
Procedure: as §1

S. pyogenes CN10 = test: in vitro MIC against S. pyogenes CN10; conditions: Streptococcus pyogenes
Procedure: as §1

S. aureus Oxford = test: in vitro MIC against S. aureus Oxford; conditions: Staphylococcus aureus
Procedure: as §1

S. pneumoniae 1761 = test: in vitro MIC against S. pneumoniae 1761; conditions: Streptococcus pneumoniae
Procedure: as §1

B. catarrhalis Ravasio = test: in vitro MIC against B. catarrhalis Ravasio; conditions: Moraxella catarrhalis
Procedure: as §1

H. influenzae NEMCl = test: in vitro MIC against H. influenzae NEMCl; conditions: Haemophilus influenzae
Procedure: as §1

S. epidermidis PHLN20 = test: in vitro MIC against S. epidermidis PHLN20; conditions: Staphylococcus epidermidis
Procedure: as §1

S. aureus MB9 = test: in vitro MIC against S. aureus MB9; conditions: Staphylococcus aureus
Procedure: as §1

H. influenzae Ql = test: in vitro MIC against H. influenzae Ql; conditions: Haemophilus influenzae
Procedure: as §1

S. aureus Russell = test: in vitro MIC against S. aureus Russell; conditions: Staphylococcus aureus
Procedure: as §1

CC1(C)S[C@@H]2[C@H](NC(=O)/C(=N\OC3CCCCC3)c3cccc(N)n3)C(=O)N2[C@H]1C(=O)O [Example 1, Sodium 6-β-[2-(2-aminopyridin-6-yl) 2-(Z)-cyclohexyl-oxiyminoacetamido]penicillinate]
MIC (S. agalacticae 2798): 0.25 µg/mL
MIC (E. Coli ESS): 0.12 µg/mL
MIC (S. pyogenes CN10): < 0.03 µg/mL
MIC (S. aureus Oxford): 0.5 µg/mL
MIC (S. pneumoniae 1761): < 0.03 µg/mL
MIC (B. catarrhalis Ravasio): 0.5 µg/mL
MIC (H. influenzae NEMCl): 1 µg/mL
MIC (S. epidermidis PHLN20): 0.5 µg/mL
MIC (S. aureus MB9): 2 µg/mL
MIC (H. influenzae Ql): 1 µg/mL
MIC (S. aureus Russell): 0.5 µg/mL
